{"source": "patent US20250134855A1", "about": "“CO[…] AND METHODS OF USING SAME” (LYKOS THERAPEUTICS, INC., priority 2022, published 2025)", "key": {"MATE2-K": {"molecular_target": "MATE2-K (Homo sapiens, UniProt Q86VL8)", "sequence (Q86VL8 1-566 isoform Q86VL8-3)": "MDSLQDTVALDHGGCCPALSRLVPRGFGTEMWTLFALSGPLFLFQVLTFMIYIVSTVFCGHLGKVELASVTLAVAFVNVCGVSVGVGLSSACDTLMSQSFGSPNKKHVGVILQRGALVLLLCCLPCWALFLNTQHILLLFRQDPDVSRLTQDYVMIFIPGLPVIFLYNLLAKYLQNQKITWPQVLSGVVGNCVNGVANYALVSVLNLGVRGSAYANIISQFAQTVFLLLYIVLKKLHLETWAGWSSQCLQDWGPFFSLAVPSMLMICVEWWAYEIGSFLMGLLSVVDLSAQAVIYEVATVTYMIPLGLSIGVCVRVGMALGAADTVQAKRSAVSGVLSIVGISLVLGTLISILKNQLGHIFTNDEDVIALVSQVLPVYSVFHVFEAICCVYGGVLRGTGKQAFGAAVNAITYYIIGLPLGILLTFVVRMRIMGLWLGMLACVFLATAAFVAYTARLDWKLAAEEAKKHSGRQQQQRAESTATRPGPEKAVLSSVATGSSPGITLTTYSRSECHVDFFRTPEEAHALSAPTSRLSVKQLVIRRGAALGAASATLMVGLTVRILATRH", "assay": "Transporter inhibition, MATE2-K"}, "OATP1B1 [1]": {"molecular_target": "T1, OATP1B1 (Homo sapiens, UniProt Q9Y6L6)", "T1 sequence (Q9Y6L6 whole entry)": "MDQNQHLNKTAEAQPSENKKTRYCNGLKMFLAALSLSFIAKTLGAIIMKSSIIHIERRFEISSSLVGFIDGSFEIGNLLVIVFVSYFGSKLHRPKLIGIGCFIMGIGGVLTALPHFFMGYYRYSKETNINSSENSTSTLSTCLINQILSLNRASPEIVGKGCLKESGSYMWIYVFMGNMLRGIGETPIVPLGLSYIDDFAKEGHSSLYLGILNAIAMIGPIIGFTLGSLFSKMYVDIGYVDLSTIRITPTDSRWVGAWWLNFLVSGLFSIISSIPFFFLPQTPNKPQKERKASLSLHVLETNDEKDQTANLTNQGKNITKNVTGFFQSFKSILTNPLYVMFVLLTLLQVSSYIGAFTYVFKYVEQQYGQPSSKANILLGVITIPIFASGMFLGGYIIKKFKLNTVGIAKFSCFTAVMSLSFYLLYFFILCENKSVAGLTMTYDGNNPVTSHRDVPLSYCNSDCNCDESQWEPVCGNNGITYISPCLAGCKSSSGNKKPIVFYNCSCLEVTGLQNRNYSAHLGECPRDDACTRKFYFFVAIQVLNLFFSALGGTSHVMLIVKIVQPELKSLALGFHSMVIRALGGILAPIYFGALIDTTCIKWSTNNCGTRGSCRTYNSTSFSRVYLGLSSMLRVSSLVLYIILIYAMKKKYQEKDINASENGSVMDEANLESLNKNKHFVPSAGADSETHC", "assay": "Transporter substrate assessment, OATP1B1"}, "[2]": {"assay": "Study MPKF: safety and tolerability (AEs, laboratory, vital signs)", "type": "in vivo, human", "details": "human, plasma, oral, 120 mg, 1 participant, no AEs reported", "excerpt": "(§1) The MPKF was a Phase 1, open-label, randomized sequence, multi-dose, 2-period crossover food effect study in 16 healthy individuals. The MPKF study evaluated plasma concentrations of both MDMA and the active metabolite 3,4-methylenedioxyamphetamine (MDA). Summary PK Parameters of the preliminary data was based on interim analysis are presented in Table 12 Table 12 Table 12, and Table 13 Table 13 Table 13 for MDMA and MDA, respectively.\n(§2) Participants remained at the clinical research unit (CRU) for each Dosing Session from the time of check-in on the night before dosing until discharge 48 hours after dosing for collection of serial blood samples for PK analysis and safety monitoring. IMP was administered on Day 1 following the treatment sequence to which the participant was randomized. An additional outpatient visit occurred 72 hours after dosing to collect a final PK sample, commensurate with the expected PK profiles of MDMA and MDA. Safety assessments were also performed at this visit.\n(§3) The washout period between Dosing Sessions was at least 14 days. If a participant experienced emesis within 4 hours of administration, they were to be withdrawn from the study and replaced with a new participant. An End of Study Visit was performed 2 to 10 days after the completion of the final Dosing Session 72-hour follow-up. An informal interim analysis was planned to be conducted after at least 5 participants completed at least 1 Dosing Session to examine PK variability."}, "healthy individuals": {"system": "healthy individuals", "assay": "Study MPKF: safety and tolerability (AEs, laboratory, vital signs)", "type": "in vivo, human", "excerpt": "as §1, §2, §3"}, "OCT2": {"molecular_target": "OCT2 (Homo sapiens, UniProt O15244)", "sequence (O15244 whole entry)": "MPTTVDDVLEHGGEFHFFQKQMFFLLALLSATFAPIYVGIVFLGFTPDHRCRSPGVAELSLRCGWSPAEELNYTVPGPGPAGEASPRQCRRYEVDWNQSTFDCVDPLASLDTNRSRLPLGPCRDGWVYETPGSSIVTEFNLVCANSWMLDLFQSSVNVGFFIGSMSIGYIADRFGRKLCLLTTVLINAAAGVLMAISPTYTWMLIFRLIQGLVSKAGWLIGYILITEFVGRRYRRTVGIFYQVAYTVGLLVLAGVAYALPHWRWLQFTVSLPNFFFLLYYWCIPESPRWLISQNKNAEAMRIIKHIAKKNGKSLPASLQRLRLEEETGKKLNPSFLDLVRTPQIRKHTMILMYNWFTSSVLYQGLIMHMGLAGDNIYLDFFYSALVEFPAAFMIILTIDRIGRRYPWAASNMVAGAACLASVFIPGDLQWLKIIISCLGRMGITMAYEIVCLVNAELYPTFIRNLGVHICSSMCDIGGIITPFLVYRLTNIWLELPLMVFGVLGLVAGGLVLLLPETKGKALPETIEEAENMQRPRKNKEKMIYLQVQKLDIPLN", "assay": "Transporter inhibition, OCT2", "details": "at supratherapeutic concentrations"}, "MDR1 [3]": {"molecular_target": "T2, MDR1 (Homo sapiens, UniProt P08183)", "T2 sequence (P08183 whole entry)": "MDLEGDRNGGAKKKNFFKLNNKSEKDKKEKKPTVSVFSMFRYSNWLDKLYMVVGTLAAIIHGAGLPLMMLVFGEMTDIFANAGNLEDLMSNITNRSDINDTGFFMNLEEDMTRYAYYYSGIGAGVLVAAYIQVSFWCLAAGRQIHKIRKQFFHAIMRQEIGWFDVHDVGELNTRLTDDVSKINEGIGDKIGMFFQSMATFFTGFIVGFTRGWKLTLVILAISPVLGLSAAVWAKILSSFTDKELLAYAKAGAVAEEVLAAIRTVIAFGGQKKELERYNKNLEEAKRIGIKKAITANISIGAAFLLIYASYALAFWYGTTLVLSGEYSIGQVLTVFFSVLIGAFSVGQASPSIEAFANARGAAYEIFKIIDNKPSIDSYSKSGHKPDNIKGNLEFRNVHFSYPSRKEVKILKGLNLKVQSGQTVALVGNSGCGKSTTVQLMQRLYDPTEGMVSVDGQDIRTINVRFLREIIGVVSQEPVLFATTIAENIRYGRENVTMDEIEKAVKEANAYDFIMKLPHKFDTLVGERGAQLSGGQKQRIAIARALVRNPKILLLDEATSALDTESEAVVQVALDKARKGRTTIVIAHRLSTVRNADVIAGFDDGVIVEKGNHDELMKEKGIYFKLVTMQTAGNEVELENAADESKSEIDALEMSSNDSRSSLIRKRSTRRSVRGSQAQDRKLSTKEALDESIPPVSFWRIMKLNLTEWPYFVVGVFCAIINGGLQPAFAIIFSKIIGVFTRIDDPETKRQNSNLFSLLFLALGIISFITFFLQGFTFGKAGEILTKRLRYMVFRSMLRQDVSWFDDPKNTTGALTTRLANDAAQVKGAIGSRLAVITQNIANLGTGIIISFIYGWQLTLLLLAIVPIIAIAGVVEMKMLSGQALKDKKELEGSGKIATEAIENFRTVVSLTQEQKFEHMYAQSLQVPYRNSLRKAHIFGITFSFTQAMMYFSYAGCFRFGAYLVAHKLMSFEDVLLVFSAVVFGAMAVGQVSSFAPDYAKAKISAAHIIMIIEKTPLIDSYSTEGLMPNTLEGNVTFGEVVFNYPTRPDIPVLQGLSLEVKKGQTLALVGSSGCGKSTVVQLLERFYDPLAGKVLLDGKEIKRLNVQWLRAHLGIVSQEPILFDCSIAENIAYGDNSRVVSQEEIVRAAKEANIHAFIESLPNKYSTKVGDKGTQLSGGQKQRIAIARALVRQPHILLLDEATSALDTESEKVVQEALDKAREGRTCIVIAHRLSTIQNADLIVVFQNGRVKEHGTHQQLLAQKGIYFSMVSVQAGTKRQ", "assay": "Transporter inhibition, MDR1"}, "BCRP": {"molecular_target": "BCRP (Homo sapiens, UniProt Q9UNQ0)", "sequence (Q9UNQ0 whole entry)": "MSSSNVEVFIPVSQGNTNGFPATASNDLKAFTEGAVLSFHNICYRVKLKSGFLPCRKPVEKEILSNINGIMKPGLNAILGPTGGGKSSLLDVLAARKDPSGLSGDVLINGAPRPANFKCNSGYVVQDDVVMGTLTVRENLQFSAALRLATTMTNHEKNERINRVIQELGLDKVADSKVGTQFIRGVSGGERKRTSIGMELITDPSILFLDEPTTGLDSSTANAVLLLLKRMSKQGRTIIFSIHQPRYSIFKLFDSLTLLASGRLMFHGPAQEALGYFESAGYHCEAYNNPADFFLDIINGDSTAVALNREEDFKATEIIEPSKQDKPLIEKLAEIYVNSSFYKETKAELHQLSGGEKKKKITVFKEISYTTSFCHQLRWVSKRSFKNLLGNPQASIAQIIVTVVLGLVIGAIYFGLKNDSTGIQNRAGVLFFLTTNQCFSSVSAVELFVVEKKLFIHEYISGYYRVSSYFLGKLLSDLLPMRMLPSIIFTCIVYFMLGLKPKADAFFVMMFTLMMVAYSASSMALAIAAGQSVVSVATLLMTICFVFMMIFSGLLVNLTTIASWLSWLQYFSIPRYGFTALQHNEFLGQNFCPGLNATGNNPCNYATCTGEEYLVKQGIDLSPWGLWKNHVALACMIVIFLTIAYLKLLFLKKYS", "assay": "Transporter substrate assessment, BCRP", "details": "not told"}, "MDR1 [4]": {"molecular_target": "T2, MDR1", "assay": "Transporter substrate assessment, MDR1"}, "dogs": {"system": "dogs", "assay": "28-day repeat-dose toxicity, weekly oral, dogs", "details": "any dose"}, "OATP1B1 [5]": {"molecular_target": "T1, OATP1B1", "assay": "Transporter inhibition, OATP1B1"}, "[6]": {"system": "participants with severe PTSD", "assay": "MAPP1 Phase 3: safety, adverse events", "type": "in vivo, human", "method": "MAPP1 was a Phase 3 randomized, placebo-controlled, 2-arm, double-blind, multi-site study conducted to investigate the efficacy and safety of MDMA-AT in participants with severe PTSD. This study is also discussed in Mitchell et. al., Nature Medicine 2021, 27, 1025-1033. This study included 3 experimental sessions of therapy combined with either MDMA·HCl or placebo. During Experimental Session 1, participants received a split dose of 120 mg (80 mg+40 mg).\nThere were 2 serious TEAEs in the placebo with therapy group (1 participant with 2 events of suicide attempt [1 moderate and 1 severe] and 1 participant with 1 event of suicidal ideation [severe], Listing 14.3.2.2.3). Adverse events of special interest included a subset of AEs involving cardiac function, suicidality, and MDMA abuse. There were 3 (6.5%) participants in the MDMA-AT group and 6 (13.6%) participants in the placebo with therapy group with a TEAE of special interest. The majority of AESIs were associated with suicidality (reported by […]) and 1 participant in the placebo group reported 2 AESIs that were associated with cardiac function (palpitations and irregular heart rate). […] A total of 4 participants discontinued study treatment due to a TEAE (MDMA: 1 participant [severe TEAE of depression]; placebo: 3 participants [1 participant with 2 serious adverse events (SAEs) of suicide attempt, 1 participant with a SAE of suicidal ideation, and 1 participant with 1 severe TEAE of insomnia]. The majority of participants in the MDMA-AT group (97.8%) and the placebo with therapy group (90.9%) had at least 1 temporally related TEAE (TEAEs that occurred during an experiment session or up to 2 days following); none of these events were SAEs. A listing of all TEAEs from MDMA-AT group with ≥5% incidence and twice prevalence of placebo group is provided below in Table 37. Table 37."}, "[7]": {"system": "CYP2B6, CYP2D6, CYP2C19, CYP1A2, CYP3A4, CYP2C9, CYP2C8", "assay": "CYP enzymes metabolizing MDMA", "details": "less contribution by CYP2C19, CYP1A2, CYP3A4, CYP2C9, and CYP2C8"}}}
{"smiles": "CNC(C)Cc1ccc2c(c1)OCO2", "note": "(centres unmarked) [MDMA, 3,4-methylenedioxymethamphetamine]", "values": [{"measurement": "inhibition of MATE2-K", "setting": "MATE2-K", "value": "not an inhibitor"}, {"measurement": "substrate of OATP1B1", "setting": "OATP1B1 [1]", "value": "not a substrate"}, {"measurement": "AUC(0-inf)", "setting": "[2]; read-out: AUC0-inf at which tolerability is supported", "value": 8920, "unit": "ng·h/mL"}, {"measurement": "Cmax", "setting": "[2]; read-out: Cmax at which tolerability is supported", "value": 440, "unit": "ng/mL"}, {"measurement": "participants with SBP≥160 mmHg or DBP≥100 mmHg or temperature>38.3° C.", "setting": "healthy individuals; any timepoint", "value": "No participant"}, {"measurement": "time of largest mean changes in SBP, DBP, temperature", "setting": "healthy individuals; fasted condition", "value": 2, "unit": "h"}, {"measurement": "time of largest mean changes in SBP, DBP, temperature", "setting": "healthy individuals; fed group", "value": 4, "unit": "h"}, {"measurement": "difference in largest mean change of SBP, fasted vs fed", "setting": "healthy individuals; non-clinically significant", "value": "about +5 mmHg"}, {"measurement": "difference in largest mean change of temperature, fasted vs fed", "setting": "healthy individuals; non-clinically significant", "value": "~+0.05 °C"}, {"measurement": "impact on biologic laboratory parameters", "setting": "healthy individuals; screening to end of study", "value": "no significant impact"}, {"measurement": "inhibition of OCT2", "setting": "OCT2", "value": "inhibits"}, {"measurement": "inhibition of MDR1", "setting": "MDR1 [3]", "value": "not an inhibitor"}, {"measurement": "substrate of BCRP", "setting": "BCRP", "value": "not a substrate"}, {"measurement": "substrate of MDR1", "setting": "MDR1 [4]", "value": "not a substrate"}, {"measurement": "neurohistopathology of the brain", "setting": "dogs", "value": "No morphologic changes"}, {"measurement": "inhibition of OATP1B1", "setting": "OATP1B1 [5]", "value": "not an inhibitor"}, {"measurement": "AESIs of MDMA abuse", "setting": "[6]; MAPP1", "value": "no AESIs of MDMA abuse"}, {"measurement": "TEAE Blood pressure increased, %", "setting": "[6]; MAPP1", "value": "(10.9) %"}, {"measurement": "TEAE Bruxism, %", "setting": "[6]; MAPP1", "value": "(13.0) %"}, {"measurement": "TEAE Chills, %", "setting": "[6]; MAPP1", "value": "(6.5) %"}, {"measurement": "TEAE Decreased appetite, %", "setting": "[6]; MAPP1", "value": "(52.2) %"}, {"measurement": "TEAE Dizziness postural, %", "setting": "[6]; MAPP1", "value": "(13.0) %"}, {"measurement": "TEAE Dry mouth, %", "setting": "[6]; MAPP1", "value": "(10.9) %"}, {"measurement": "TEAE Feeling cold, %", "setting": "[6]; MAPP1", "value": "(19.6) %"}, {"measurement": "TEAE Feeling jittery, %", "setting": "[6]; MAPP1", "value": "(10.9) %"}, {"measurement": "TEAE Hyperhidrosis, %", "setting": "[6]; MAPP1", "value": "(21.7) %"}, {"measurement": "TEAE Intrusive thoughts, %", "setting": "[6]; MAPP1", "value": "(8.7) %"}, {"measurement": "TEAE Micturition urgency, %", "setting": "[6]; MAPP1", "value": "(6.5) %"}, {"measurement": "TEAE Muscle tightness, %", "setting": "[6]; MAPP1", "value": "(60.9) %"}, {"measurement": "TEAE Muscle twitching, %", "setting": "[6]; MAPP1", "value": "(6.5) %"}, {"measurement": "TEAE Musculoskeletal pain, %", "setting": "[6]; MAPP1", "value": "(8.7) %"}, {"measurement": "TEAE Mydriasis, %", "setting": "[6]; MAPP1", "value": "(15.2) %"}, {"measurement": "TEAE Nausea, %", "setting": "[6]; MAPP1", "value": "(30.4) %"}, {"measurement": "TEAE Nervousness, %", "setting": "[6]; MAPP1", "value": "(6.5) %"}, {"measurement": "TEAE Non-cardiac chest pain, %", "setting": "[6]; MAPP1", "value": "(8.7) %"}, {"measurement": "TEAE Nystagmus, %", "setting": "[6]; MAPP1", "value": "(13.0) %"}, {"measurement": "TEAE Pain, %", "setting": "[6]; MAPP1", "value": "(8.7) %"}, {"measurement": "TEAE Pollakiuria, %", "setting": "[6]; MAPP1", "value": "(8.7) %"}, {"measurement": "TEAE Pyrexia, %", "setting": "[6]; MAPP1", "value": "(6.5) %"}, {"measurement": "TEAE Restlessness, %", "setting": "[6]; MAPP1", "value": "(15.2) %"}, {"measurement": "TEAE Somnolence, %", "setting": "[6]; MAPP1", "value": "(6.5) %"}, {"measurement": "TEAE Stress, %", "setting": "[6]; MAPP1", "value": "(8.7) %"}, {"measurement": "TEAE Substance use, %", "setting": "[6]; MAPP1", "value": "(6.5) %"}, {"measurement": "TEAE Vision blurred, %", "setting": "[6]; MAPP1", "value": "(8.7) %"}, {"measurement": "TEAE Vomiting, %", "setting": "[6]; MAPP1", "value": "(8.7) %"}, {"measurement": "participants with a TEAE of special interest", "setting": "[6]; MAPP1", "value": 6.5, "unit": "%"}, {"measurement": "At least one Serious TEAE Leading to Death, %", "setting": "[6]; MAPP1, Safety Set", "value": "(0.0) %"}, {"measurement": "At least one Serious TEAE, %", "setting": "[6]; MAPP1, Safety Set", "value": "(0.0) %"}, {"measurement": "At least one TEAE of Special Interest, %", "setting": "[6]; MAPP1, Safety Set", "value": "(6.5) %"}, {"measurement": "Discontinued study treatment due to any TEAE(s), %", "setting": "[6]; MAPP1, Safety Set", "value": "(2.2) %"}, {"measurement": "Participants with at least 1 TEAE during Experimental Sessions and 2 Days Following, %", "setting": "[6]; MAPP1, Safety Set", "value": "(97.8) %"}, {"measurement": "Subjects with at least 1 Severe TEAE, %", "setting": "[6]; MAPP1, Safety Set", "value": "(8.7) %"}, {"measurement": "Subjects with at least 1 TEAE, %", "setting": "[6]; MAPP1, Safety Set", "value": "(100.0) %"}, {"measurement": "heart rate and blood pressure during experimental sessions", "setting": "[6]; MAPP1, dose-dependent, no clinical intervention required", "value": "transient increases"}, {"measurement": "participants with at least 1 temporally related TEAE", "setting": "[6]; MAPP1, during an experiment session or up to 2 days following", "value": 97.8, "unit": "%"}, {"measurement": "metabolizing CYP enzymes", "setting": "[7]", "value": "metabolized primarily by CYP2B6 and CYP2D6"}]}
